Measured values reported in publication PMC10322960 (European Journal of Drug Metabolism and Pharmacokinetics, 2023).

Assays:
Type in all cases: in vitro ADME
[1] = target: T1, CYP1A2 (Homo sapiens, UniProt P05177)
T1 sequence (P05177 1-516): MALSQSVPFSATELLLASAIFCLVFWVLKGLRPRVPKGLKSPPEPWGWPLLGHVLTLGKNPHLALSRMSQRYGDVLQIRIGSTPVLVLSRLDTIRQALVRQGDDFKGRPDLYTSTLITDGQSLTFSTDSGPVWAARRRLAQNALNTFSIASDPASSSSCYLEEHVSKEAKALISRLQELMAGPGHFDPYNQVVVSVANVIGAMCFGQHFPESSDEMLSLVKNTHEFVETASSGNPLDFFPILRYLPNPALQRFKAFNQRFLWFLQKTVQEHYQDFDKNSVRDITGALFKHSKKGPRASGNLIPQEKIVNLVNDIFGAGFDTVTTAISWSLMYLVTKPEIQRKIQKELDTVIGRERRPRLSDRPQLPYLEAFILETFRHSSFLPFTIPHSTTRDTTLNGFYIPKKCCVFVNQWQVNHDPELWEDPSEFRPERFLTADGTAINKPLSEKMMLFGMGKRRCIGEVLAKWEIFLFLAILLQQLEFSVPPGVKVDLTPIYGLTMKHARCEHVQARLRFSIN

[2] = target: T2, OAT3 (Homo sapiens, UniProt Q8TCC7); assay: OAT3 uptake inhibition assay; conditions: 0.63–40 μM
T2 sequence (Q8TCC7 1-542): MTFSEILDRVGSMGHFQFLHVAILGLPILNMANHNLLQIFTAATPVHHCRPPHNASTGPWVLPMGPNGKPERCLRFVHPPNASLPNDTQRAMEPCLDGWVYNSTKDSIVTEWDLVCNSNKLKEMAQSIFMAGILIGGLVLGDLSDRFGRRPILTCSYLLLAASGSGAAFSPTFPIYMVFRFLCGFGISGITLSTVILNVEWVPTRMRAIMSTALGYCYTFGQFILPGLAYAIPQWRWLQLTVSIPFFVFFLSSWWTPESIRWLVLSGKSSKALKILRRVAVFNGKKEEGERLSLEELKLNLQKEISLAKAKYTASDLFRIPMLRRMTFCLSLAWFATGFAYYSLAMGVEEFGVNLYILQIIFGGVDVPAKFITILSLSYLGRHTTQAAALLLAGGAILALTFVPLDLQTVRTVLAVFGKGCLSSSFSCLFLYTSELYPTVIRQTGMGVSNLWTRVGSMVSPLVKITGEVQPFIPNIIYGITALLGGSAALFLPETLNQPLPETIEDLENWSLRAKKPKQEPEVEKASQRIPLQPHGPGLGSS

[3] = target: T3, OCT2 (Homo sapiens, UniProt O15244); assay: OCT2 uptake substrate assay
T3 sequence (O15244 1-555): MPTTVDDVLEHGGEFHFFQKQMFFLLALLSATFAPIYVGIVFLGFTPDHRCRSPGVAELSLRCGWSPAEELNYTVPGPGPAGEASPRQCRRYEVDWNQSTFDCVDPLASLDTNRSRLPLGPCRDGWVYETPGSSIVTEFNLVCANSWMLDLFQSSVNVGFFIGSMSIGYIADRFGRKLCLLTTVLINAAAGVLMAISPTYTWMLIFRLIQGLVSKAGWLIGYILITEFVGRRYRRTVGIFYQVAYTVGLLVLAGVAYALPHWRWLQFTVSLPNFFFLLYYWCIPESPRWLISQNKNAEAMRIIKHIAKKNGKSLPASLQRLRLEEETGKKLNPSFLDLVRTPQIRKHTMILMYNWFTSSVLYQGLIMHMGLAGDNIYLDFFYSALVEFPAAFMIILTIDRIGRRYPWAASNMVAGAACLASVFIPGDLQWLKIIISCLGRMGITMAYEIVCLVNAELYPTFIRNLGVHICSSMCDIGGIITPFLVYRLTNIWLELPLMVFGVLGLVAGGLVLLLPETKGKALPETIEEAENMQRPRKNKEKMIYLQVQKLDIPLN

[4] = target: T3, OCT2; assay: OCT2 uptake inhibition assay; conditions: 0.63–40 μM
[5] = target: MDR1 (Homo sapiens, UniProt P08183); assay: MDR1 monolayer substrate assay
[6] = target: T4, OAT1 (Homo sapiens, UniProt Q4U2R8); assay: OAT1 uptake substrate assay
T4 sequence (Q4U2R8 1-563): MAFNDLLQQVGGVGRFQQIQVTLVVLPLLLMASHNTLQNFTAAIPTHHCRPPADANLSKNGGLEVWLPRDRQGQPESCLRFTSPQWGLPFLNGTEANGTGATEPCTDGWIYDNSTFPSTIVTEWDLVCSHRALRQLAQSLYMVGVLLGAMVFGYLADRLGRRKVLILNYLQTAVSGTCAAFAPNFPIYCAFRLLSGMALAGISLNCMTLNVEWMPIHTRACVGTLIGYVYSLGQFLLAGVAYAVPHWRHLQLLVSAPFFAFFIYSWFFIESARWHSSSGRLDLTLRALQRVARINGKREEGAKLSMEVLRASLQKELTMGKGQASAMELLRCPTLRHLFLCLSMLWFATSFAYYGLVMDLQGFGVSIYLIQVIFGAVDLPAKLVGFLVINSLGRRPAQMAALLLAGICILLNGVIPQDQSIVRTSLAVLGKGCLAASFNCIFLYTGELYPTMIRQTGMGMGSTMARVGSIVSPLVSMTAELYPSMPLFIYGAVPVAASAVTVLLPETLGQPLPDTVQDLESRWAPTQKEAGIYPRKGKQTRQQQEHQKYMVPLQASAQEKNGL

[7] = transporter-expressing vs control cells, 0.04–40 µm

Chain of MDR1 (P08183 whole entry): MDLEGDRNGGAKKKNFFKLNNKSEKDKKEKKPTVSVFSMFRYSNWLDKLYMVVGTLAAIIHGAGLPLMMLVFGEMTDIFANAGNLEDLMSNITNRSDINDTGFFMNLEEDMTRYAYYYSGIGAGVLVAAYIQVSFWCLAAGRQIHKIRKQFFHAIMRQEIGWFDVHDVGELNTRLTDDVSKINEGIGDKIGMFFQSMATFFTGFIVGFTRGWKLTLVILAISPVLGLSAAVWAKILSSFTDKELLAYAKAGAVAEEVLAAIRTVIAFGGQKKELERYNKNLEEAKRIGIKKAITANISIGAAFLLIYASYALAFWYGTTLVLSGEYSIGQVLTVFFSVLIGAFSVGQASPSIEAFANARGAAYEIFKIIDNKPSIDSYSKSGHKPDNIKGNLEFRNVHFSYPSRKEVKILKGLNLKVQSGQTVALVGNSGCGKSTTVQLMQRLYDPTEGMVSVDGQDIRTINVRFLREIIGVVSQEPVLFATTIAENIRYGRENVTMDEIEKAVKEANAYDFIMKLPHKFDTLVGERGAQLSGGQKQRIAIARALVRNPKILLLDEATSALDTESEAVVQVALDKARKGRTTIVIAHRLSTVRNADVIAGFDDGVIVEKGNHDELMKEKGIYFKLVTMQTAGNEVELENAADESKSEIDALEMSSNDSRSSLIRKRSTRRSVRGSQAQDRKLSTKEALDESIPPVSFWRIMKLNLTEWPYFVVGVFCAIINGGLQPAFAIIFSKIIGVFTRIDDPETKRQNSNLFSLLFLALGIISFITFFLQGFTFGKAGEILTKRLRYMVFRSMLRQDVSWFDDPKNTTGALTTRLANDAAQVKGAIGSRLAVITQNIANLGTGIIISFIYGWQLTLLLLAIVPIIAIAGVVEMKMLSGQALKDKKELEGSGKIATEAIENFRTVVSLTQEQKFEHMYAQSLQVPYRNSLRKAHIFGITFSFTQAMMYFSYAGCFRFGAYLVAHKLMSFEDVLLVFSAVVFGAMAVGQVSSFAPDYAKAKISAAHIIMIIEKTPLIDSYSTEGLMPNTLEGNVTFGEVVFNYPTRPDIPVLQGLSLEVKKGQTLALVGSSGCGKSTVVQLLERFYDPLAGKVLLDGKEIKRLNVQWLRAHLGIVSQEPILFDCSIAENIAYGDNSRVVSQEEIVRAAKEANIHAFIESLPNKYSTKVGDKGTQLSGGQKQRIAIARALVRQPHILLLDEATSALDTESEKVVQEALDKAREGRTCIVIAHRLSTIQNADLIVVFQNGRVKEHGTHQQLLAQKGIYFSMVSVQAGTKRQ

In the case of N#Cc1ccc(N2N=C3c4ccc(C(=O)N5CCC(O)CC5)nc4CC[C@@H]3[C@@H]2C2CCCC2)cc1Cl [Ocedurenone, ocedurenone], the “percent remaining activity of CYP1A2” value ([1]; ocedurenone at 200 μM) is reported as 92.9%, the IC50 ([1]; read-out: IC50 CYP1A2, recombinant CYP) is reported as > 200 µM and the “inhibition category CYP1A2” value ([1]; recombinant enzyme) is reported as “little or no inhibition”. The “interaction with human OAT3 transporter (inhibition)” value [2] was “No interaction”, the “Substrate, OCT2 UPT” value [3] was “not likely to be a substrate” and the “Maximum fold accumulation, OCT2 UPT” value [3, 7] was 1.0. For the same molecule, the “interaction with human OCT2 transporter (inhibition)” value [4] was “No interaction”, the “Substrate, MDR1 ML” value [5] was “likely a substrate” and the “Substrate, OAT1 UPT” value [6] was “not likely to be a substrate”. For the same molecule, the “Maximum fold accumulation, OAT1 UPT” value [6, 7] was 1.1.
